Data reported in PubChem BioAssay AID1259407 (Chemical Carcinogenesis Research Information System (CCRIS), 2018).
Active and inactive are the calls of the source. How the calls were made is not given here.

System: CCRIS mutagenicity, Ames/micronucleus/aberration tests
Assay: CCRIS mutagenicity studies

CC(=O)Nc1ccc(C(=O)CCl)cc1
mutagenic call (Test System: AMES SALMONELLA TYPHIMURIUM, Strain/Indicator: TA98, Metabolic Activation: HAMSTER, LIVER, S-9, AROCLOR 1254, Method: STANDARD PLATE): active; positive
mutagenic call (Test System: AMES SALMONELLA TYPHIMURIUM, Strain/Indicator: TA98, Metabolic Activation: HAMSTER, LIVER, S-9, Method: STANDARD PLATE): active; positive
mutagenic call (Test System: AMES SALMONELLA TYPHIMURIUM, Strain/Indicator: TA98, Metabolic Activation: MOUSE, LIVER, S-9, Method: STANDARD PLATE): inactive; negative
mutagenic call (Test System: AMES SALMONELLA TYPHIMURIUM, Strain/Indicator: TA98, Metabolic Activation: NONE): active; positive
mutagenic call (Test System: AMES SALMONELLA TYPHIMURIUM, Strain/Indicator: TA98, Metabolic Activation: RAT, LIVER, S-9, AROCLOR 1254, Method: STANDARD PLATE): inactive; negative
mutagenic call (Test System: AMES SALMONELLA TYPHIMURIUM, Strain/Indicator: TA98, Metabolic Activation: RAT, LIVER, S-9, PHENOBARBITONE AND BETA-NAPHTHOFLAVONE): active; positive
mutagenic call (Test System: AMES SALMONELLA TYPHIMURIUM, Strain/Indicator: TA98, Metabolic Activation: RAT, LIVER, S-9, Method: STANDARD PLATE): inactive; negative
mutagenic call (Test System: AMES SALMONELLA TYPHIMURIUM, Strain/Indicator: TA100, Metabolic Activation: HAMSTER, LIVER, S-9, AROCLOR 1254, Method: STANDARD PLATE): inactive; negative
mutagenic call (Test System: AMES SALMONELLA TYPHIMURIUM, Strain/Indicator: TA100, Metabolic Activation: HAMSTER, LIVER, S-9, Method: STANDARD PLATE): inactive; negative
mutagenic call (Test System: AMES SALMONELLA TYPHIMURIUM, Strain/Indicator: TA100, Metabolic Activation: MOUSE, LIVER, S-9, AROCLOR 1254, Method: STANDARD PLATE): inactive; negative
mutagenic call (Test System: AMES SALMONELLA TYPHIMURIUM, Strain/Indicator: TA100, Metabolic Activation: MOUSE, LIVER, S-9, Method: STANDARD PLATE): inactive; negative
mutagenic call (Test System: AMES SALMONELLA TYPHIMURIUM, Strain/Indicator: TA100, Metabolic Activation: NONE): inactive; negative
mutagenic call (Test System: AMES SALMONELLA TYPHIMURIUM, Strain/Indicator: TA100, Metabolic Activation: NONE, Method: STANDARD PLATE): inactive; negative
mutagenic call (Test System: AMES SALMONELLA TYPHIMURIUM, Strain/Indicator: TA100, Metabolic Activation: RAT, LIVER, S-9, AROCLOR 1254, Method: STANDARD PLATE): inactive; negative
mutagenic call (Test System: AMES SALMONELLA TYPHIMURIUM, Strain/Indicator: TA100, Metabolic Activation: RAT, LIVER, S-9, PHENOBARBITONE AND BETA-NAPHTHOFLAVONE): inactive; negative
mutagenic call (Test System: AMES SALMONELLA TYPHIMURIUM, Strain/Indicator: TA100, Metabolic Activation: RAT, LIVER, S-9, Method: STANDARD PLATE): inactive; negative
mutagenic call (Test System: AMES SALMONELLA TYPHIMURIUM, Strain/Indicator: TA1535, Metabolic Activation: HAMSTER, LIVER, S-9, AROCLOR 1254, Method: STANDARD PLATE): inactive; negative
mutagenic call (Test System: AMES SALMONELLA TYPHIMURIUM, Strain/Indicator: TA1535, Metabolic Activation: HAMSTER, LIVER, S-9, Method: STANDARD PLATE): inactive; negative
mutagenic call (Test System: AMES SALMONELLA TYPHIMURIUM, Strain/Indicator: TA1535, Metabolic Activation: MOUSE, LIVER, S-9, AROCLOR 1254, Method: STANDARD PLATE): inactive; negative
mutagenic call (Test System: AMES SALMONELLA TYPHIMURIUM, Strain/Indicator: TA1535, Metabolic Activation: MOUSE, LIVER, S-9, Method: STANDARD PLATE): inactive; negative
mutagenic call (Test System: AMES SALMONELLA TYPHIMURIUM, Strain/Indicator: TA1535, Metabolic Activation: NONE, Method: STANDARD PLATE): inactive; negative
mutagenic call (Test System: AMES SALMONELLA TYPHIMURIUM, Strain/Indicator: TA1535, Metabolic Activation: RAT, LIVER, S-9, AROCLOR 1254, Method: STANDARD PLATE): inactive; negative
mutagenic call (Test System: AMES SALMONELLA TYPHIMURIUM, Strain/Indicator: TA1535, Metabolic Activation: RAT, LIVER, S-9, Method: STANDARD PLATE): inactive; negative
mutagenic call (Test System: AMES SALMONELLA TYPHIMURIUM, Strain/Indicator: TA1537, Metabolic Activation: HAMSTER, LIVER, S-9, Method: STANDARD PLATE): inactive; negative
mutagenic call (Test System: AMES SALMONELLA TYPHIMURIUM, Strain/Indicator: TA1537, Metabolic Activation: MOUSE, LIVER, S-9, Method: STANDARD PLATE): inactive; negative
mutagenic call (Test System: AMES SALMONELLA TYPHIMURIUM, Strain/Indicator: TA1538, Metabolic Activation: NONE): inactive; negative
mutagenic call (Test System: AMES SALMONELLA TYPHIMURIUM, Strain/Indicator: TA1538, Metabolic Activation: RAT, LIVER, S-9, AROCLOR 1254, Method: STANDARD PLATE): inactive; negative
mutagenic call (Test System: AMES SALMONELLA TYPHIMURIUM, Strain/Indicator: TA1538, Metabolic Activation: RAT, LIVER, S-9, PHENOBARBITONE AND BETA-NAPHTHOFLAVONE): active; positive
mutagenic call (Test System: AMES SALMONELLA TYPHIMURIUM, Strain/Indicator: TA1538, Metabolic Activation: RAT, LIVER, S-9, Method: STANDARD PLATE): inactive; negative
mutagenic call (Test System: E. COLI, Strain/Indicator: WP2 UVRA, Metabolic Activation: HAMSTER, LIVER, S-9, AROCLOR 1254, Method: STANDARD PLATE): inactive; negative
mutagenic call (Test System: E. COLI, Strain/Indicator: WP2 UVRA, Metabolic Activation: HAMSTER, LIVER, S-9, Method: STANDARD PLATE): inactive; negative
mutagenic call (Test System: E. COLI, Strain/Indicator: WP2 UVRA, Metabolic Activation: MOUSE, LIVER, S-9, Method: STANDARD PLATE): inactive; negative
mutagenic call (Test System: E. COLI, Strain/Indicator: WP2 UVRA, Metabolic Activation: NONE, Method: STANDARD PLATE): inactive; negative
mutagenic call (Test System: E. COLI, Strain/Indicator: WP2 UVRA, Metabolic Activation: RAT, LIVER, S-9, AROCLOR 1254, Method: STANDARD PLATE): inactive; negative
mutagenic call (Test System: E. COLI, Strain/Indicator: WP2 UVRA, Metabolic Activation: RAT, LIVER, S-9, Method: STANDARD PLATE): inactive; negative

c1ccc(OC2CO2)cc1 (configuration not stated)
mutagenic call (Test System: AMES SALMONELLA TYPHIMURIUM, Strain/Indicator: TA98, Metabolic Activation: RAT LIVER MICROSOMES, Method: STANDARD PLATE): active; positive
mutagenic call (Test System: AMES SALMONELLA TYPHIMURIUM, Strain/Indicator: TA1535, Metabolic Activation: RAT LIVER MICROSOMES, Method: STANDARD PLATE): active; positive
